14 compounds from ChEMBL document CHEMBL4017483, “Potent and selective oxytocin receptor agonists without disulfide bridges” (Bioorg Med Chem Lett, 2017) can be followed below.

The target of one assay is T1, Oxytocin receptor (Homo sapiens, UniProt P30559).
T1 sequence (P30559 whole entry): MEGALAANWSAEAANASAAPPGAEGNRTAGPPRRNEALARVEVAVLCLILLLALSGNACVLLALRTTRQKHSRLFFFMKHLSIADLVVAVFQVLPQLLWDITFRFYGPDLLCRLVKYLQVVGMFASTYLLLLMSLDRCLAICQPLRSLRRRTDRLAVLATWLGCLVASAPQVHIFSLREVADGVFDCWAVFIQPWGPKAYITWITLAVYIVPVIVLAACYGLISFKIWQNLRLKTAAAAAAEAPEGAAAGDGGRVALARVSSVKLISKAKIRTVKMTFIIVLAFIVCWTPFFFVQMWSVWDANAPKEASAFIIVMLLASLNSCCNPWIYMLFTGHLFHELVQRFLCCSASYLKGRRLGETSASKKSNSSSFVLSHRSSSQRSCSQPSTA
As to the kind of experiment: Agonist activity at human OTR expressed in CHO cells assessed as calcium mobilization measured after 30 mins by Fluo-4-AM dye based FLIPR assay. The format is functional, cell-based. In general terms: Calcium assays in cells follow changes in intracellular calcium, usually with a dye or a luminescent sensor.

For a further assay, the target named is Vasopressin V1a receptor (Homo sapiens, UniProt P37288). Put plainly: Agonist activity at human V1a receptor expressed in CHO cells assessed as calcium mobilization measured after 30 mins by Fluo-4-AM dye based FLIPR assay. It is filed as cell-based.
Vasopressin V1a receptor, sequence (P37288 whole entry): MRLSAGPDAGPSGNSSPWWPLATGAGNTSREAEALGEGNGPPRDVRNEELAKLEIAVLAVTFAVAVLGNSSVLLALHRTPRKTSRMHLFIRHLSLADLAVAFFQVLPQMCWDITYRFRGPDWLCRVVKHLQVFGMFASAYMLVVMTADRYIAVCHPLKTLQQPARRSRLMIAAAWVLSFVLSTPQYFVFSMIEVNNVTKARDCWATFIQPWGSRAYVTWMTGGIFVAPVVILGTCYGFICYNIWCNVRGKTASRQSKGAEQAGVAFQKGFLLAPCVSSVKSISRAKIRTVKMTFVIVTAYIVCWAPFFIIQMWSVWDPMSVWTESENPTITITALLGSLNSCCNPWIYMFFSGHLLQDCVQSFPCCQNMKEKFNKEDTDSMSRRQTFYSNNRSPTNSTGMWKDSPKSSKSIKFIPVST
A further assay addresses T2, Vasopressin V1b receptor (Homo sapiens, UniProt P47901).
T2 sequence (P47901 whole entry): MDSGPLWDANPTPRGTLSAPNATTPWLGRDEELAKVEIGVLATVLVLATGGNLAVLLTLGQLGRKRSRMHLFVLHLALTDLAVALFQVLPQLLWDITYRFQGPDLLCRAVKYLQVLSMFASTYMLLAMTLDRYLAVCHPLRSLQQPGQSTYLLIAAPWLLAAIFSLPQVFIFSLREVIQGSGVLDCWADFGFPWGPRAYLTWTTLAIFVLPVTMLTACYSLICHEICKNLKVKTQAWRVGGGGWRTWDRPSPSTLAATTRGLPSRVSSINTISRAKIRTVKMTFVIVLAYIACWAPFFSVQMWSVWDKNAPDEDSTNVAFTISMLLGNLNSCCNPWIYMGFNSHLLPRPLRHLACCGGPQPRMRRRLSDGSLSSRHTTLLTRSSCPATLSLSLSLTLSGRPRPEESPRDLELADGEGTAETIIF
As to the kind of experiment: Agonist activity at human V1b receptor expressed in CHO cells assessed as calcium mobilization measured after 30 mins by Fluo-4-AM dye based FLIPR assay. The format is cell-based.

The species entered for assay [1] is Homo sapiens. As to the kind of experiment: Selectivity ratio of EC50 for human V1a receptor to EC50 for human OTR.
The species entered for assay [2] is Homo sapiens. Put plainly: Selectivity ratio of EC50 for human V1b receptor to EC50 for human OTR.

Numbered stars: 1 amine (or outer) side, 2 acyl side, 3 side chain; on linkers, the order of the positions; unused ones are H or OH. Bridge positions count the residues as written; N and C are the ends. Square brackets hold non-standard residues; d marks the D form. Peptide text beside a SMILES is read from it. Hyp = O=C(O)[C@@H]1C[C@@H](O)CN1; X1 = O=C(CCC[*:2])[*:1]; Mpa = O=C(O)CCS; Sar = CNCC(=O)O

As a reminder, the EC50 is the midpoint of the concentration-response curve. As to `CC[C@H](C)[C@@H]1NC(=O)[C@H](Cc2ccc(O)cc2)NC(=O)CCSSC[C@@H](C(=O)N[C@@H](CO)C(=O)N[C@@H](CC(C)C)C(=O)NCC(N)=O)NC(=O)[C@H](CC(N)=O)NC(=O)[C@H](CCC(N)=O)NC1=O` ([Mpa]YIQNCSLG-NH2; disulfide 1-6), the figures for the EC50 at Oxytocin receptor, at Vasopressin V1a receptor and at Vasopressin V1b receptor were 0.082 nM, more than 100 nM and more than 100 nM, respectively. Also, the Ratio EC50 in the assay filed under Homo sapiens [1] and in the assay filed under Homo sapiens [2] was more than 1000 each time.
Take `CCCCCCC(NC(=O)[C@@H]1CCCN1C(=O)[C@@H]1CSSCCC(=O)N[C@@H](Cc2ccc(O)cc2)C(=O)N[C@@H]([C@@H](C)CC)C(=O)N[C@@H](CCC(N)=O)C(=O)N[C@@H](CC(N)=O)C(=O)N1)C(=O)NCC(N)=O` (stereo not given in full): the results for the EC50 at Oxytocin receptor, on Vasopressin V1a receptor and at Vasopressin V1b receptor were 0.027 nM, 3.1 nM and 0.55 nM, respectively. Further, the Ratio EC50 in the assay listed under Homo sapiens [1] amounted to 120; in the assay filed under Homo sapiens [2], 20.
With `CC[C@H](C)[C@@H]1NC(=O)[C@H](Cc2ccc(O)cc2)NC(=O)CCSSC[C@@H](C(=O)N2C[C@H](O)C[C@H]2C(=O)N[C@@H](CC(C)C)C(=O)NCC(N)=O)NC(=O)[C@H](CC(N)=O)NC(=O)[C@H](CCC(N)=O)NC1=O`, the values for the EC50 on Oxytocin receptor, on Vasopressin V1a receptor and at Vasopressin V1b receptor were 0.0053 nM, more than 100 nM and more than 100 nM, respectively. The Ratio EC50 in the assay filed under Homo sapiens [1] and in the assay filed under Homo sapiens [2] was more than 10000 each time.
Consider `CC[C@H](C)[C@@H]1NC(=O)[C@H](Cc2ccc(O)cc2)NC(=O)CCSSC[C@@H](C(=O)N(C)CC(=O)N[C@@H](CC(C)C)C(=O)NCC(N)=O)NC(=O)[C@H](CC(N)=O)NC(=O)[C@H](CCC(N)=O)NC1=O` ([Mpa]YIQNC[Sar]LG-NH2; disulfide 1-6), for which the figures for the EC50 at Oxytocin receptor, on Vasopressin V1a receptor and on Vasopressin V1b receptor were 0.0069 nM, more than 100 nM and more than 100 nM, respectively. Also, the Ratio EC50 in the assay listed under Homo sapiens [1] and in the assay listed under Homo sapiens [2] was more than 10000 each time.
`CC[C@H](C)[C@@H]1NC(=O)[C@H](Cc2ccc(O)cc2)NC(=O)CCSSC[C@@H](C(=O)N2CCC[C@H]2C(=O)N[C@@H](CC(C)C)C(=O)NCC(N)=O)NC(=O)[C@H](CCC(=O)O)NC(=O)[C@H](CCC(N)=O)NC1=O` ([Mpa]YIQECPLG-NH2; disulfide 1-6): the EC50 at Oxytocin receptor is 89 nM; on Vasopressin V1a receptor, more than 100 nM; at Vasopressin V1b receptor, more than 100 nM. In addition, the Ratio EC50 in the assay filed under Homo sapiens [1] and in the assay filed under Homo sapiens [2] was more than 1 each time.
Turning to `CC[C@H](C)[C@@H]1NC(=O)[C@H](Cc2ccc(O)cc2)NC(=O)CCSSC[C@@H](C(=O)N2CCC[C@H]2C(=O)N[C@@H](CCCNC(=N)N)C(=O)NCC(N)=O)NC(=O)[C@H](CC(N)=O)NC(=O)[C@H](CCC(N)=O)NC1=O` ([Mpa]YIQNCPRG-NH2; disulfide 1-6), the EC50 on Oxytocin receptor was found to be 0.03 nM; on Vasopressin V1a receptor it was 0.12 nM; at Vasopressin V1b receptor it was 0.034 nM. Further, the Ratio EC50 in the assay filed under Homo sapiens [1] was determined as 4; in the assay filed under Homo sapiens [2], 1.1.
`CCCCCC[C@H](NC(=O)[C@@H]1CCCN1C(=O)[C@@H]1CSSCCC(=O)N[C@@H](Cc2ccc(O)cc2)C(=O)N[C@@H]([C@@H](C)CC)C(=O)N[C@@H](CCC(N)=O)C(=O)N[C@@H](CC(N)=O)C(=O)N1)C(=O)NCC(N)=O`: the values for the EC50 on Oxytocin receptor, at Vasopressin V1a receptor and on Vasopressin V1b receptor were 0.027 nM, 3.1 nM and 0.55 nM, respectively. The Ratio EC50 in the assay filed under Homo sapiens [1] stood at 120; in the assay listed under Homo sapiens [2], 20.
As for `CC[C@H](C)[C@@H]1NC(=O)[C@H](Cc2ccc(O)cc2)NC(=O)CCCSC[C@@H](C(=O)N2CCC[C@H]2C(=O)N[C@@H](CC(C)C)C(=O)NCC(N)=O)NC(=O)[C@H](CC(N)=O)NC(=O)[C@H](CCC(N)=O)NC1=O` (YIQNCPLG-NH2; linker N-5 via X1), the figures for the EC50 on Oxytocin receptor, on Vasopressin V1a receptor and on Vasopressin V1b receptor were 0.0067 nM, 45 nM and 6.5 nM, respectively. Further, the Ratio EC50 stood at 6700 in the assay filed under Homo sapiens [1] and 970 in the assay listed under Homo sapiens [2].
As to `CCCC[C@H](NC(=O)[C@@H]1CCCN1C(=O)[C@@H]1CSSCCC(=O)N[C@@H](Cc2ccc(O)cc2)C(=O)N[C@@H]([C@@H](C)CC)C(=O)N[C@@H](CCC(N)=O)C(=O)N[C@@H](CC(N)=O)C(=O)N1)C(=O)NCC(N)=O`, the figures for the EC50 at Oxytocin receptor, at Vasopressin V1a receptor and on Vasopressin V1b receptor were 0.015 nM, 4.4 nM and 0.5 nM, respectively. Further, the Ratio EC50 in the assay listed under Homo sapiens [1] came out at 290; in the assay listed under Homo sapiens [2], 33.
As to `CC[C@H](C)[C@@H]1NC(=O)[C@H](Cc2ccc(O)cc2)NC(=O)CCSSC[C@@H](C(=O)N2CCC[C@H]2C(=O)N[C@@H](C)C(=O)NCC(N)=O)NC(=O)[C@H](CC(N)=O)NC(=O)[C@H](CCC(N)=O)NC1=O` ([Mpa]YIQNCPAG-NH2; disulfide 1-6), the EC50 was 0.021 nM at Oxytocin receptor, 4.2 nM on Vasopressin V1a receptor and 0.17 nM at Vasopressin V1b receptor. Besides, the figures for the Ratio EC50 in the assay listed under Homo sapiens [1] and in the assay filed under Homo sapiens [2] were 200 and 8.1, respectively.
For `CC[C@H](C)[C@@H]1NC(=O)[C@H](Cc2ccc(O)cc2)NC(=O)CCCSC[C@@H](C(=O)N2C[C@H](O)C[C@H]2C(=O)N[C@@H](CC(C)C)C(=O)NCC(N)=O)NC(=O)[C@H](CC(N)=O)NC(=O)[C@H](CCC(N)=O)NC1=O` (YIQNC[Hyp]LG-NH2; linker N-5 via X1) the same measures were 0.0055 nM, more than 100 nM, more than 100 nM, more than 10000 and more than 10000.
For the compound `CC[C@H](C)[C@@H]1NC(=O)[C@H](Cc2ccc(O)cc2)NC(=O)CCSSC[C@@H](C(=O)N2CCC[C@H]2C(=O)N[C@@H](CO)C(=O)NCC(N)=O)NC(=O)[C@H](CC(N)=O)NC(=O)[C@H](CCC(N)=O)NC1=O` ([Mpa]YIQNCPSG-NH2; disulfide 1-6), the EC50 is 0.056 nM at Oxytocin receptor, more than 100 nM on Vasopressin V1a receptor and 0.65 nM on Vasopressin V1b receptor. The Ratio EC50 is more than 1000 in the assay listed under Homo sapiens [1] and 12 in the assay listed under Homo sapiens [2].
For the compound `CC[C@H](C)[C@@H]1NC(=O)[C@H](Cc2ccc(O)cc2)NC(=O)CCSSC[C@@H](C(=O)N2CCC[C@H]2C(=O)N[C@@H](CCC(=O)O)C(=O)NCC(N)=O)NC(=O)[C@H](CC(N)=O)NC(=O)[C@H](CCC(N)=O)NC1=O` ([Mpa]YIQNCPEG-NH2; disulfide 1-6), the EC50 at Oxytocin receptor was 0.25 nM; at Vasopressin V1a receptor, more than 100 nM; at Vasopressin V1b receptor it was more than 100 nM. In addition, the Ratio EC50 in the assay filed under Homo sapiens [1] and in the assay listed under Homo sapiens [2] was more than 100 each time.
As for `CC[C@H](C)[C@@H]1NC(=O)[C@H](Cc2ccc(O)cc2)NC(=O)CCSSC[C@@H](C(=O)N[C@@H](C)C(=O)N[C@@H](CC(C)C)C(=O)NCC(N)=O)NC(=O)[C@H](CC(N)=O)NC(=O)[C@H](CCC(N)=O)NC1=O` ([Mpa]YIQNCALG-NH2; disulfide 1-6), the EC50 is 0.07 nM at Oxytocin receptor, more than 100 nM at Vasopressin V1a receptor and more than 100 nM at Vasopressin V1b receptor. Besides, the Ratio EC50 in the assay listed under Homo sapiens [1] and in the assay filed under Homo sapiens [2] was more than 1000 in each case.
